Here are results for nine compounds from PubChem BioAssay (NCI).

Some test systems named below: HCT-15 colon; 786-0 renal; OVCAR-4 ovarian; IGROV1 ovarian; SK-MEL-5 melanoma; U251 CNS; HL-60(TB) leukemia; A498 renal; UACC-62 melanoma; SNB-19 CNS.
Common to all, as to assay: growth of human tumour cells (NCI), 48 h

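In this assay, cells in 96-well plates receive the compound at five concentrations for 48 hours. Endpoints are linearly interpolated between the surrounding concentrations. GI50 marks 50% less growth. TGI: total growth inhibition.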 A value given as a limit tells only on which side of the number the result lay.

In the case of `Cc1cccc(N2CCN(C(=S)c3ccc4c(c3)OCO4)CC2)c1`, the GI50 in the assay on HCT-15 colon was 0.625 µM; with 786-0 renal, 7.97 µM; in the assay with OVCAR-4 ovarian, 67.7 µM; in the assay on IGROV1 ovarian, 1.21 µM; in the assay with SK-MEL-5 melanoma it was 0.437 µM; in the assay on U251 CNS it was 1.89 µM. The GI50 is 0.659 µM in the assay with HL-60(TB) leukemia, 0.799 µM in the assay with A498 renal, 0.64 µM with UACC-62 melanoma and 1.64 µM in the assay on SNB-19 CNS. For the same compound, the TGI was more than 100 µM in the assay with HCT-15 colon; more than 100 µM in the assay with 786-0 renal; more than 100 µM in the assay on OVCAR-4 ovarian; more than 100 µM in the assay on IGROV1 ovarian; 35.1 µM with SK-MEL-5 melanoma; more than 100 µM with U251 CNS. In addition, the TGI is 19 µM in the assay on HL-60(TB) leukemia, 67.9 µM in the assay with A498 renal, more than 100 µM in the assay with UACC-62 melanoma and more than 100 µM in the assay with SNB-19 CNS.
With `C=C1C(=O)O[C@H]2[C@H]1CC/C(COC(=O)C(=O)c1cn(Cc3ccccc3)c3ccccc13)=C\CC[C@@]1(C)O[C@@H]21`, the GI50 was 1.45 µM in the assay on HCT-15 colon; 1.93 µM in the assay with 786-0 renal; 4.19 µM in the assay on OVCAR-4 ovarian; 1.92 µM in the assay on IGROV1 ovarian; 1.99 µM with SK-MEL-5 melanoma; 4.01 µM in the assay on U251 CNS. The GI50 was 2.26 µM with HL-60(TB) leukemia, 18.5 µM with A498 renal, 1.8 µM in the assay on UACC-62 melanoma and 7.21 µM with SNB-19 CNS. The TGI was 3.69 µM with HCT-15 colon; 4.03 µM with 786-0 renal; more than 100 µM with OVCAR-4 ovarian; 3.84 µM in the assay with IGROV1 ovarian; 4.1 µM in the assay on SK-MEL-5 melanoma; 14.7 µM with U251 CNS. In addition, the TGI in the assay on HL-60(TB) leukemia was 7 µM; in the assay on A498 renal, 35.2 µM; with UACC-62 melanoma, 4.42 µM; in the assay with SNB-19 CNS it was 25.9 µM.
For `Cc1cc(S(=O)(=O)Nc2nnc(-c3ccccc3)c(-c3ccccc3)n2)c(SCC(N)=O)cc1Cl`, the GI50 in the assay with HCT-15 colon was more than 100 µM; with 786-0 renal, 38.6 µM; with OVCAR-4 ovarian, 41.5 µM; with IGROV1 ovarian, more than 100 µM; with SK-MEL-5 melanoma, 57.8 µM; with U251 CNS, 31.1 µM. Further, the GI50 in the assay with HL-60(TB) leukemia was 53.3 µM; with A498 renal, more than 100 µM; with UACC-62 melanoma it was 24.6 µM; in the assay on SNB-19 CNS, 35.3 µM. Further, the TGI in the assay with HCT-15 colon is more than 100 µM; in the assay on 786-0 renal it was more than 100 µM; in the assay on OVCAR-4 ovarian, more than 100 µM; in the assay with IGROV1 ovarian, more than 100 µM; in the assay with SK-MEL-5 melanoma it was more than 100 µM; with U251 CNS it was 78.4 µM. Also, the TGI in the assay with HL-60(TB) leukemia was more than 100 µM; in the assay with A498 renal, more than 100 µM; in the assay on UACC-62 melanoma it was 56.2 µM; with SNB-19 CNS, more than 100 µM.
As for `COc1cc2ncnc(Nc3ccc(C)c(O)c3)c2cc1OC`, the GI50 was 14.1 µM with HCT-15 colon; 11.4 µM in the assay with 786-0 renal; 9.91 µM in the assay on OVCAR-4 ovarian; 1.98 µM with IGROV1 ovarian; more than 25 µM in the assay with SK-MEL-5 melanoma; 15.8 µM in the assay on U251 CNS. Moreover, the GI50 was more than 25 µM in the assay with HL-60(TB) leukemia, 5.56 µM in the assay with A498 renal, more than 25 µM with UACC-62 melanoma and more than 25 µM in the assay on SNB-19 CNS. Besides, the TGI is more than 25 µM in the assay on HCT-15 colon; more than 25 µM with 786-0 renal; more than 25 µM in the assay on OVCAR-4 ovarian; more than 12 µM with IGROV1 ovarian; more than 25 µM in the assay with SK-MEL-5 melanoma; more than 25 µM in the assay on U251 CNS. For the same compound, the TGI in the assay with HL-60(TB) leukemia was more than 25 µM; in the assay with A498 renal, 18 µM; in the assay with UACC-62 melanoma, more than 25 µM; with SNB-19 CNS, more than 25 µM.
Turning to `CC(=O)[O-].CCN(CC)c1ccc(C=NCCN=Cc2ccc(N(CC)CC)cc2[O-])c([O-])c1.[Mn+3]`, the GI50 in the assay with HCT-15 colon was more than 100 µM; with 786-0 renal it was 38.7 µM; in the assay with OVCAR-4 ovarian it was 37.3 µM; in the assay on IGROV1 ovarian, 29.6 µM; in the assay with SK-MEL-5 melanoma, 19 µM; in the assay with U251 CNS it was 15.4 µM. In addition, the GI50 in the assay with HL-60(TB) leukemia is 17.6 µM; with A498 renal, 22.9 µM; with UACC-62 melanoma it was 25.7 µM; with SNB-19 CNS, 19.9 µM. In addition, the TGI is more than 100 µM with HCT-15 colon; more than 100 µM in the assay with 786-0 renal; more than 100 µM in the assay on OVCAR-4 ovarian; 80.3 µM in the assay with IGROV1 ovarian; 33.9 µM in the assay on SK-MEL-5 melanoma; 29.3 µM with U251 CNS. Further, the TGI worked out at 38.3 µM in the assay with HL-60(TB) leukemia, 53.1 µM in the assay on A498 renal, 57.5 µM with UACC-62 melanoma and 42.8 µM in the assay on SNB-19 CNS.
Regarding `CCCCC(O)(c1ccc(Cl)cc1)C(CN1CCOCC1)c1ccc(Cl)cc1` (stereo not given), the GI50 was 11.2 µM in the assay with HCT-15 colon; 13.6 µM in the assay on 786-0 renal; 13.6 µM in the assay with OVCAR-4 ovarian; 8.68 µM in the assay with IGROV1 ovarian; 13.8 µM with SK-MEL-5 melanoma; 13.6 µM in the assay with U251 CNS. The GI50 in the assay with HL-60(TB) leukemia is 16.7 µM; in the assay on A498 renal, 11.1 µM; in the assay on UACC-62 melanoma it was 12.4 µM; in the assay with SNB-19 CNS, 15.3 µM. In addition, the TGI came to 26.2 µM in the assay on HCT-15 colon; 27.5 µM with 786-0 renal; 29 µM with OVCAR-4 ovarian; 33 µM in the assay on IGROV1 ovarian; 28.7 µM in the assay with SK-MEL-5 melanoma; 27.5 µM in the assay on U251 CNS. For the same compound, the TGI with HL-60(TB) leukemia came out at 39.5 µM; with A498 renal, 24.1 µM; with UACC-62 melanoma, 28.7 µM; in the assay on SNB-19 CNS, 36.6 µM.
In the case of `OC[C@H]1CCCC1O` (stereo not given in full), the TGI in the assay on HCT-15 colon, in the assay on 786-0 renal, with OVCAR-4 ovarian, with IGROV1 ovarian, in the assay with SK-MEL-5 melanoma and in the assay with U251 CNS was more than 100 µM in each case. Moreover, the TGI in the assay with HL-60(TB) leukemia, with A498 renal, in the assay with UACC-62 melanoma and with SNB-19 CNS was more than 100 µM each time.
Consider `Cc1cccc(NC(=O)C(=O)C(C(=O)c2ccc3ccccc3c2)C2OC(=O)c3ccccc32)c1C` (stereo not given), for which the TGI in the assay on HCT-15 colon was found to be 41.9 µM; in the assay on 786-0 renal, 20.3 µM; in the assay with OVCAR-4 ovarian, 33.7 µM; in the assay with IGROV1 ovarian it was 57.7 µM; in the assay with SK-MEL-5 melanoma it was 25.9 µM; with U251 CNS, 23.1 µM. Besides, the TGI with HL-60(TB) leukemia was determined as 68.5 µM; in the assay with A498 renal, 24.2 µM; with UACC-62 melanoma, 22.5 µM; in the assay on SNB-19 CNS, 25.4 µM.
With `O=C(O)C1OC(n2cc(F)c(=O)[nH]c2=O)CC1O` (stereo not given), the TGI in the assay on HCT-15 colon, in the assay on 786-0 renal, with OVCAR-4 ovarian, in the assay with IGROV1 ovarian, in the assay with SK-MEL-5 melanoma and in the assay on U251 CNS was more than 100 µM throughout. Moreover, the TGI was more than 100 µM with HL-60(TB) leukemia, more than 100 µM in the assay with A498 renal, more than 80.5 µM in the assay with UACC-62 melanoma and more than 100 µM in the assay with SNB-19 CNS.
